The results in this text go back to publication PMC6273213, “Novel Triazole-Quinoline Derivatives as Selective Dual Binding Site Acetylcholinesterase Inhibitors” (Molecules, 2016).

Structures are written as SMILES. Where a name gives a salt, the structure may show the parent alone.

In assay [1] the target is T1, hAChE (Homo sapiens, UniProt P22303).
T1 construct: purchased Sigma-Aldrich; host or cells: HEK 293 cells
The experiment in a line: biochemical. The conditions noted are these: for inhibition at 100 µM: 100 μM compound, substrate ACThI; for inhibition at 100 µM / IC50: human recombinant hAChE; for IC50: at least six concentrations, read-out: IC50 ± SEM (μM) hAChE; for Ki: steady-state inhibition constant from replots of reciprocal plots, read-out: Ki ± SEM (μM) hAChE; for Mechanism Type hAChE: Lineweaver-Burk plots. On the procedure:
(§1) Buffer components and all of the chemicals used were all analytical grade materials, and were obtained from Sigma, Merck (Darmstadt, Germany), Synth (São Paulo, Brazil) or Acros (Geel, Belgium). The water used in all of the preparations was purified with a Millipore Milli-Q® system (Millipore, São Paulo, Brazil).
(§2) The ligand assays were carried out in accordance with the literature, albeit with some modifications. Briefly, the assays were carried out using a 96-well microplate with an Elisa microplate reader. To a final volume of 250 µL, each well was filled with: 125 µL of Ellman’s reagent (3 mM in […] phosphate buffer pH 7.4); 50 µL of buffer TRIS (50 mM, pH 8.0); 25 µL of enzyme solution at the final concentration 0.28 U/mL (in […] phosphate buffer pH 7.4); 25 µL of the ACThI (15 mM) for AChE and 25 µL of the BCThI (15 mM) for BChE; and 25 µL of each inhibitor sample (1 mM), final concentration at 100 µM. The microplate was shaken for 10 s followed by reading the absorbance at 412 nm at 30 s intervals for two minutes. The negative control (compound and absence of ACThI) and a positive control (ACThI and absence of compound) were carried out.
(§3) The assays were carried out in duplicate.
IC50 values were independently determined by performing rate measurements for at least six concentrations of the target inhibitor. The nonlinear regression parameters were calculated, and the IC50 was extrapolated.

In assay [2] the target is T2, hBChE (Homo sapiens, UniProt P06276).
T2 construct: hBChE EC 3.1.1.8, 50 units mg^−1 from human erythrocytes; purchased Sigma-Aldrich; host or cells: human erythrocytes
Description: biochemical. The following applies: 100 μM compound; substrate BCThI. Here is the method: as §1, §2, §3

T1 sequence (P22303 32-614): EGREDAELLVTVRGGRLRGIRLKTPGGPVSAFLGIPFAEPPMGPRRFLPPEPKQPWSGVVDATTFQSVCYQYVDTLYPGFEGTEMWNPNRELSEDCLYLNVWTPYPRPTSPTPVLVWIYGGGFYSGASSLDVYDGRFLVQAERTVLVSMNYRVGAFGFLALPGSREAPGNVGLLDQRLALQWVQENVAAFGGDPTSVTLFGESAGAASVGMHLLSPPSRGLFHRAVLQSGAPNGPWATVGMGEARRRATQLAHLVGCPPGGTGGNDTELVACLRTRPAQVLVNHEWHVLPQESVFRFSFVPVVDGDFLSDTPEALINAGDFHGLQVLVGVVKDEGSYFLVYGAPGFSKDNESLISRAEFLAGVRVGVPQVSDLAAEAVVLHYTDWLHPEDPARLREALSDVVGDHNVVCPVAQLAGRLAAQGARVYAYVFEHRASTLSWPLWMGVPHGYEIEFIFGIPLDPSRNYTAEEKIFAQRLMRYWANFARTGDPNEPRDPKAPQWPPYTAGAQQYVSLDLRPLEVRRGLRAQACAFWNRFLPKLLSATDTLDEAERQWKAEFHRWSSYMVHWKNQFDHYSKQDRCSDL
T2 sequence (P06276 29-602): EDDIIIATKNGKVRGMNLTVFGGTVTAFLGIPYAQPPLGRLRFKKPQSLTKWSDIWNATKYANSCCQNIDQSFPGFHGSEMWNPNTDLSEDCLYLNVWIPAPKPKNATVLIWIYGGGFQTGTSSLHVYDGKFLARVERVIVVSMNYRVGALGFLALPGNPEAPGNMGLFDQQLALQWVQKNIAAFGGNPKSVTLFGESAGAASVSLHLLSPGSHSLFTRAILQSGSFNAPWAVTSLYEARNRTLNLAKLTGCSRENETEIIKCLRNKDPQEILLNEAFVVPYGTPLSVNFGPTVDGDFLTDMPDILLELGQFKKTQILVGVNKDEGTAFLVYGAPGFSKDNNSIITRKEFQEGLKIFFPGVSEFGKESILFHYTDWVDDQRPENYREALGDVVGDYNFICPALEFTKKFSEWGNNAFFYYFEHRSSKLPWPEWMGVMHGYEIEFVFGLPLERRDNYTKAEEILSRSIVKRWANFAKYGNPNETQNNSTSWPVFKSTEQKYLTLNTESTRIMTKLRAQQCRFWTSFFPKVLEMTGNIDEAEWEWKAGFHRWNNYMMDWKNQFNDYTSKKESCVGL

For `Cc1ccc2c(c1)C(=O)/C(=C/c1ccc(-c3cn(-c4ccnc5ccccc45)nn3)cc1)C2` [3d, (E)-6-Methyl-2-(4-(1-(quinolin-4-yl)-1H-1,2,3-triazol-4-yl)benzylidene)-2,3-dihydro-1H-inden-1-one], the inhibition at 100 µM in assay [1] came out at 9.1%; in assay [2] it was 0%.
Turning to `O=C1C(=Cc2ccc(-c3cn(-c4ccnc5ccccc45)nn3)cc2)Cc2cc3c(cc21)OCO3` [3b, (E)-5,6-Methilenedioxy-2-(4-(1-(quinolin-4-yl)-1H-1,2,3-triazol-4-yl)benzylidene)-2,3-dihydro-1H-inden-1-one], the values for the inhibition at 100 µM in assay [1] and in assay [2] were 0% and 5.2%, respectively.
Regarding `COc1cc2c(cc1OC)C(=O)C(CC1CCN(Cc3ccccc3)CC1)C2` (stereo not shown) [Donepezil, donepezil hydrochloride monohydrate, reference compound], in assay [2], at 100 µM the inhibition was 11.1%.
For `COc1cc2c(cc1OC)C(=O)/C(=C/c1ccc(-c3cn(-c4ccnc5ccccc45)nn3)cc1)C2` [3a, (E)-5,6-Dimethoxy-2-(4-(1-(quinolin-4-yl)-1H-1,2,3-triazol-4-yl)benzylidene)-2,3-dihydro-1H-inden-1-one], in assay [1], the inhibition at 100 µM is 29%, the IC50 came out at 128 ± 25 µM and the Ki came to 185 ± 29 µM. In addition, the inhibition at 100 µM in assay [2] is 0%.
`COc1cc2c(cc1Cl)C/C(=C\c1ccc(-c3cn(-c4ccnc5ccccc45)nn3)cc1)C2=O` [3c, (E)-5-Chloro-6-methoxy-2-(4-(1-(quinolin-4-yl)-1H-1,2,3-triazol-4-yl)benzylidene)-2,3-dihydro-1H-inden-1-one]: the inhibition at 100 µM in assay [1] came to 5.4%; in assay [2] it was 6.2%.
Regarding `COc1ccc2c(c1)C/C(=C\c1ccc(-c3cn(-c4ccnc5ccccc45)nn3)cc1)C2=O` [3g, (E)-5-Methoxy-2-(4-(1-(quinolin-4-yl)-1H-1,2,3-triazol-4-yl)benzylidene)-2,3-dihydro-1H-inden-1-one], in assay [1], the inhibition at 100 µM was determined as 48.1%, the “Mechanism Type hAChE” value is on record as “mixed-type”, the IC50 worked out at 114 ± 10 µM and the Ki was 220 ± 60 µM. This compound registered an inhibition at 100 µM in assay [2] of 0.2%.
Turning to `COc1ccc2c(c1)C(=O)/C(=C/c1ccc(-c3cn(-c4ccnc5ccccc45)nn3)cc1)C2` [3h, (E)-6-Methoxy-2-(4-(1-(quinolin-4-yl)-1H-1,2,3-triazol-4-yl)benzylidene)-2,3-dihydro-1H-inden-1-one], in assay [1], the inhibition at 100 µM is 55.7%, the “Mechanism Type hAChE” value was “mixed-type”, the IC50 came out at 109 µM and the Ki turned out to be 245 ± 70 µM. The inhibition at 100 µM in assay [2] was 0%.
With `O=C1/C(=C/c2ccc(-c3cn(-c4ccnc5ccccc45)nn3)cc2)Cc2ccc(Cl)cc21` [3e, (E)-6-Chloro-2-(4-(1-(quinolin-4-yl)-1H-1,2,3-triazol-4-yl)benzylidene)-2,3-dihydro-1H-inden-1-one], in assay [1], the inhibition at 100 µM stood at 37.7%, the IC50 stood at 147 ± 15 µM and the Ki turned out to be 530 ± 150 µM. Testing at 100 µM in assay [2] gave an inhibition of 0%.
